Patent US4963565A, “In vivo treatment of mycobacterial infections with 6-cyclo octylamino-5,8-quinoline quinone” (priority 1986, dated 1990)

Legend:
[1] = tested on: Mycobacterium leprae; assay: Inhibitory activity against Mycobacterium leprae in the macrophage model (3H thymidine uptake); assay type: cell-based, M. leprae (in human monocyte derived macrophages); design: Inhibition of 3H thymidine uptake: dose or concentration left out as unconfirmed
Description: The effect of CQQ on Mycobacterium leprae, the causative agent for leprosy, was studied using monocyte derived macrophages obtained from human volunteers.
Blood from a healthy volunteer was drawn and monocytes were removed and cultured to the macrophage stage. This required about 7 days. The macrophages were then exposed to M. leprae bacilli obtained from biopsy specimens of leprosy patients. One sample was exposed to CQQ, while other samples were exposed to DDS (diaminodiphenyl sulphone), the standard antileprosy drug, or rifampin, at various concentrations. Macrophages were exposed to radiolabelled tritium (^3 H) labeled thymidine, and its uptake was measured using a liquid scintillation counter. A control model of M. leprae exposed macrophages, which was not treated was used as well. The uptake of thymidine is a measure of antimycobacterial activity.

[2] = tested on: M. intracellulare 571-8; assay: In vivo effectiveness against chronic M. intracellulare infections in C57Bl/6 mice (Examples IV and V); design: species or system M. intracellulare (host: C57Bl/6 mice)
[3] = tested on: C57Bl/6 mice; assay: Acute toxicity in C57Bl/6 mice; assay type: in vivo; conditions: 70 kg subject, extrapolated from mouse LD50
Procedure: (§1) Studies were performed to obtain toxicity data. […] Extrapolating, this corresponds to an LD50 of approximately 40 gr for a 70 kg subject. For chronic toxicity studies both C57Bl/6 and Beige mice were administered doses of 40 mg/kg/day, and intraperitoneal doses over 30 mg/kg for more than 60 days.

[4] = Acute toxicity in C57Bl/6 mice; assay type: in vivo; conditions: mouse, in vivo, ip; C57Bl/6 mice, intraperitoneal
Procedure: as §1

[5] = tested on: M. intracellulare; conditions: Gangadharam et al.; cited from earlier work
[6] = tested on: blood clotting; assay: Effect on blood clotting; assay type: in vivo; conditions: oral, intraperitoneal and intramuscular, varying amounts, FIG. 8
Procedure: Due to its relationship to Vitamin K, there was some concern as to the effect CQQ would have on blood clotting. Varying amounts of CQQ were administered orally, intraperitoneally, and intramuscularly.

[7] = tested on: C57Bl/6 and Beige mice; assay: Chronic toxicity in C57Bl/6 and Beige mice; assay type: in vivo; conditions: 40 mg/kg/day, and intraperitoneal doses over 30 mg/kg, more than 60 days
Procedure: as §1

[8] = tested on: M. tuberculosis H37 Rv; assay: In vitro activity against growing culture of M. tuberculosis in Middlebrook 7H9 broth; conditions: 2 mcg/ml, FIG. 7
[9] = tested on: M. intracellulare (571-8 strain); assay: In vivo activity of different doses against acute M. intracellulare infections in Beige mice (Example III); design: species or system M. intracellulare (host: Beige mice)
[10] = tested on: Mycobacterium intracellulare strain 571-8; assay: In vivo chemotherapeutic activity against M. intracellulare, acute model in Beige mice (Example 1); design: species or system M. intracellulare (host: Beige mice, C57Bl/6/bg/bg); conditions: FIG. 1
[11] = tested on: M. intracellulare; assay: In vitro activity against serovars of M. intracellulare, radiometric (Bactec) method; assay type: cell-based
Procedure: A study of the effect of CQQ on different serovars of M. intracellulare in vitro was performed using the radiometric (Bactec) method. Maximum growth index (GI) of 999 was determined (for control models) in terms of the number of days necessary for the culture to reach this stage. GI is measured using the special instrument which reads the amount of ^14 C labelled CO2 liberated from the strains using the ^14 C labelled substrates.

[12] = 8.0 mcg/ml, serovar 3, strain 7-17
[13] = 8.0 mcg/ml, serovar 3, strain 9-75
[14] = 8.0 mcg/ml, serovar 3, strain 12-1
[15] = 8.0 mcg/ml, serovar 3, strain 971-8
[16] = 8.0 mcg/ml, serovar 4, strain 5-13
[17] = 8.0 mcg/ml, serovar 4, strain 7-55
[18] = 8.0 mcg/ml, serovar 4, strain 8-50
[19] = 8.0 mcg/ml, serovar 4, strain TMC1463
[20] = 8.0 mcg/ml, serovar 9, strain 2-10
[21] = 8.0 mcg/ml, serovar 9, strain 6-38
[22] = 8.0 mcg/ml, serovar 9, strain 7-25
[23] = 8.0 mcg/ml, serovar 9, strain 1784-286
[24] = 8.0 mcg/ml, serovar 14, strain 7-3
[25] = 8.0 mcg/ml, serovar 14, strain 7-43
[26] = 8.0 mcg/ml, serovar 14, strain BOONE
[27] = 8.0 mcg/ml, serovar 14, strain P-39
[28] = 16.0 mcg/ml, serovar 3, strain 7-17
[29] = 16.0 mcg/ml, serovar 3, strain 9-75
[30] = 16.0 mcg/ml, serovar 3, strain 12-1
[31] = 16.0 mcg/ml, serovar 3, strain 971-8
[32] = 16.0 mcg/ml, serovar 4, strain 5-13
[33] = 16.0 mcg/ml, serovar 4, strain 7-55
[34] = 16.0 mcg/ml, serovar 4, strain 8-50
[35] = 16.0 mcg/ml, serovar 4, strain TMC1463
[36] = 16.0 mcg/ml, serovar 9, strain 2-10
[37] = 16.0 mcg/ml, serovar 9, strain 6-38
[38] = 16.0 mcg/ml, serovar 9, strain 7-25
[39] = 16.0 mcg/ml, serovar 9, strain 1784-286
[40] = 16.0 mcg/ml, serovar 14, strain 7-3
[41] = 16.0 mcg/ml, serovar 14, strain 7-43
[42] = 16.0 mcg/ml, serovar 14, strain BOONE
[43] = 16.0 mcg/ml, serovar 14, strain P-39

O=C1C(NC2CCCCCCC2)=CC(=O)c2ncccc21 [CQQ, 6-cyclo octylamino-5,8-quinoline quinone]
Counts per minute (3H thymidine uptake) ([1]; Sample I, 5 NG/ML): 2.4 COUNTS PER MINUTE | Counts per minute (3H thymidine uptake) ([1]; Sample I, 25 NG/ML): 93 COUNTS PER MINUTE | Counts per minute (3H thymidine uptake) ([1]; Sample I, 50 NG/ML): 93 COUNTS PER MINUTE | Counts per minute (3H thymidine uptake) ([1]; Sample I, 100 NG/ML): 84 COUNTS PER MINUTE | Counts per minute (3H thymidine uptake) ([1]; Sample I, CQQ 10 NG/ML): 2.3 COUNTS PER MINUTE | Counts per minute (3H thymidine uptake) ([1]; Sample II, 5 NG/ML): 6 COUNTS PER MINUTE | Counts per minute (3H thymidine uptake) ([1]; Sample II, 25 NG/ML): 69 COUNTS PER MINUTE | Counts per minute (3H thymidine uptake) ([1]; Sample II, 50 NG/ML): 76 COUNTS PER MINUTE | Counts per minute (3H thymidine uptake) ([1]; Sample II, 100 NG/ML): 76 COUNTS PER MINUTE | Counts per minute (3H thymidine uptake) ([1]; Sample II, 200 NG/ML): 91 COUNTS PER MINUTE | Counts per minute (3H thymidine uptake) ([1]; Sample II, CQQ 10 NG/ML): 13 COUNTS PER MINUTE | Counts per minute (3H thymidine uptake) ([1]; Sample III, 5 NG/ML): 2 COUNTS PER MINUTE | Counts per minute (3H thymidine uptake) ([1]; Sample III, 25 NG/ML): 37 COUNTS PER MINUTE | Counts per minute (3H thymidine uptake) ([1]; Sample III, CQQ 10 NG/ML): 2 COUNTS PER MINUTE | Activity with another strain of M. leprae ([1]; another strain): even greater activity | Antileprosy activity ([1]; conclusion from Table 3): considerable antileprosy activity | Inhibition of 3H thymidine uptake ([1]; two strains of M. leprae): significant inhibition | Duration of statistically significant difference vs control ([2]; Example IV, 10 mg/kg (P 0.05)): up to 3 weeks | Reduction in CFU counts in spleen and lungs vs untreated control ([2]; Example IV, 10 mg/kg, followed for 28 days, FIG. 5): considerable reduction in CFU counts both in spleen and lungs | In vivo antimycobacterial activity in the chronic infection ([2]; Example V, FIG. 6): considerable in vivo antimycobacterial activity | LD50 extrapolated to a 70 kg subject [3]: approximately 40 gr | LD50 [4]: 564 mg/kg | In vitro effectiveness against M. intracellulare [5]: effective against M. intracellulare and M. tuberculosis in vitro | Blood clotting time [6]: little change in blood clotting time | Visible toxic manifestation or death [7]: No visible toxic manifestation or death | Inhibitory activity against tubercle bacilli [8]: remarkable inhibitory activity | Dose comparison, 20 vs 10 mg/kg ([9]; 20 mg/kg vs 10 mg/kg): The dose of 20 mg/kg is better than 10 mg/kg dose | Inhibitory activity, reduction of CFU counts from spleens and lungs ([9]; 10 or 20 mg/kg, FIGS. 3 and 4): considerable inhibitory activity | Duration of statistically significant differences in CFU counts ([9]; 10 or 20 mg/kg, spleens and lungs (P 0.05)): up to 6 weeks | Effect in lung vs spleen ([9]; FIG. 4 vs FIG. 3): more pronounced in the lung (FIG. 4) than in the spleen | Activity vs infected untreated control ([10]; 10 mg/kg orally daily, each time point (P 0.05)): considerable activity with a statistically significant difference | Activity compared with ansamycin ([10]; both 10 mg/kg orally daily): better than that of ansamycin | Day maximum GI achieved [11, 12]: 2 days | Maximum GI [11, 12]: 16 | Day maximum GI achieved [11, 13]: 2 days | Maximum GI [11, 13]: 22 | Day maximum GI achieved [11, 14]: 2 days | Maximum GI [11, 14]: 4 | Day maximum GI achieved [11, 15]: 3 days | Maximum GI [11, 15]: 20 | Day maximum GI achieved [11, 16]: 1 days | Maximum GI [11, 16]: 14 | Day maximum GI achieved [11, 17]: 2 days | Maximum GI [11, 17]: 7 | Day maximum GI achieved [11, 18]: 2 days | Maximum GI [11, 18]: 15 | Day maximum GI achieved [11, 19]: 1 days | Maximum GI [11, 19]: 6 | Day maximum GI achieved [11, 20]: 1 days | Maximum GI [11, 20]: 14 | Day maximum GI achieved [11, 21]: 1 days | Maximum GI [11, 21]: 13 | Day maximum GI achieved [11, 22]: 4 days | Maximum GI [11, 22]: 33 | Day maximum GI achieved [11, 23]: 1 days | Maximum GI [11, 23]: 9 | Day maximum GI achieved [11, 24]: 2 days | Maximum GI [11, 24]: 5 | Day maximum GI achieved [11, 25]: 1 days | Maximum GI [11, 25]: 1 | Day maximum GI achieved [11, 26]: 1 days | Maximum GI [11, 26]: 13 | Day maximum GI achieved [11, 27]: 1 days | Maximum GI [11, 27]: 21 | Inhibition of the strains ([11]; 16.0 and 8.0 mcg/ml): Complete inhibition | Day maximum GI achieved [11, 28]: 1 days | Maximum GI [11, 28]: 5 | Day maximum GI achieved [11, 29]: 1 days | Maximum GI [11, 29]: 14 | Day maximum GI achieved [11, 30]: 2 days | Maximum GI [11, 30]: 6 | Day maximum GI achieved [11, 31]: 1 days | Maximum GI [11, 31]: 8 | Day maximum GI achieved [11, 32]: 1 days | Maximum GI [11, 32]: 4 | Day maximum GI achieved [11, 33]: 2 days | Maximum GI [11, 33]: 4 | Day maximum GI achieved [11, 34]: 1 days | Maximum GI [11, 34]: 6 | Day maximum GI achieved [11, 35]: 1 days | Maximum GI [11, 35]: 5 | Day maximum GI achieved [11, 36]: 1 days | Maximum GI [11, 36]: 12 | Day maximum GI achieved [11, 37]: 1 days | Maximum GI [11, 37]: 6 | Day maximum GI achieved [11, 38]: 1 days | Maximum GI [11, 38]: 7 | Day maximum GI achieved [11, 39]: 1 days | Maximum GI [11, 39]: 5 | Day maximum GI achieved [11, 40]: 1 days | Maximum GI [11, 40]: 4 | Day maximum GI achieved [11, 41]: 1 days | Maximum GI [11, 41]: 9 | Day maximum GI achieved [11, 42]: 1 days | Maximum GI [11, 42]: 7 | Day maximum GI achieved [11, 43]: 1 days | Maximum GI [11, 43]: 22 | Effect on GI rates of all M. intracellulare strains ([11]; both concentrations (16.0 and 8.0 mcg/ml)): dramatic decrease in GI rates for all M. intracellulare strains
